According to US9594047B2, “Potentiometric sensors and method for measuring intermolecular interactions” (Universiteit Antwerpen, priority 2013, dated 2017):

Experiments:
[1] = Potentiometric sensorgram of an oligonucleotide analyte; conditions: 10^−5 M injection
Excerpt: Coating materials such as gelatin are easily doped by proteins [see De Wael, K.; De Belder, S.; Van Vlierberghe, S.; Van Steenberge, G.; Dubruel, P. Talanta 82 (2010) 1980-1985] antibodies, bioparticles (viruses, bacteria, . . . ), DNA, and aptamers. Large biomolecules can be used as analyte (prey ligand) (second molecular species). From experience with oligonucleotides [Nagels, L. J.; Everaert, J.; Bohets, H.; Del Favero, J.; Goossens, D.; Robbens, J.; Pietraszkiewicz, M.; Pietraszkiewicz, O., Comb. Chem. High Throughput Screening 10 (2007) 555-559] it is known that these multiply charged molecules give very good potentiometric responses. For example, the 22-mer 5′-[…]-3′ yields a slope (S, equations 2 and 3) value of 38 mV per decade, which is much higher than that calculated by the Nernst equation (equation 2). This is due to the fact that equation 2 was derived for point charges, while an oligonucleotide is a multiply charged rodlike molecule. It is detected three times more sensitively (on a molar basis) than a small, well-responding anionic molecule such as maleic acid. […] This means that the described method can also be used to measure DNA/DNA interactions. Potentiometry also allows working with miniaturized electrode arrays (eventually with ion-sensitive field-effect transistor (ISFET) readout), which means that high-throughput measurements can be considered.

[2] = test system: gelatin A coating (collagen material); test: Potentiometric FIA sensorgram, linearization method, gelatin A-coated sensor; assay type: binding, porcine
Excerpt: (§1) [formula] Starting from the “association” part of the sensorgram, one can now plot dR/dt versus R. For a pseudo-first-order kinetics, this will yield a straight line with slope equal to slope=−(koncanalyte+koff) (12) Plotting this slope versus canalyte then yields a graph from which kon and koff can be calculated.
(§2) From kon and koff, Kassoc=kon/koff is obtained, from which Kdiss (=1/Kassoc) and the Gibbs free energy of interaction can be calculated (ΔG^0=−RT ln Kass). Kdiss is most frequently used term to express intermolecular interactions. This type of analysis was done for different electrode/analyte combinations. Examples were chosen so as to include examples where the immobilized component (in the coating layer of the sensor) includes large biomolecules (DNA).
The flow injection analysis (FIA) recordings were performed using an LC-10ADvp pump (Shimadzu Liquid Chromatography) and a Rheodyne 7125 six-port external sample injector (VICI, Houston, Tex.). A 1.00 mL sample loop was used to generate square concentration pulses for sensorgram recording in FIA conditions. […] The flow rate was 1.00 mL min^−1. Poiseuille peak broadening effects were kept to a minimum using short injector-detector connections (150 mm). […]

[3] = Potentiometric FIA sensorgram, linearization method, rubber phase (PVC) coated sensor; assay type: binding; conditions: for koff: from plot of slope versus canalyte (on phase kinetics); for kon: from plot of slope versus canalyte, eluent 5.0 mM H3PO4 pH 2.4
Excerpt: The model is based on the assumption that the rate determining phenomenon is the adsorption of analyte A (second molecular species) to the surface receptor sites Rsurface: A+Rsurface⇄ARsurface (5) Receptor sites are occupied by the analyte are designated as Roccupied. The rate of adsorption can be expressed as νon: […]
Differential equation 6 can be solved to yield equations 8 and 10. In these equations, Roccupied is replaced by R, the concentration-related response (10^mV/S−1), as both are linearly related (see above). Rmax is the value of R which is obtained at the plateau of the sensorgram: R(t)=Rmax(1−e^−k^obsd^t) (8) where kobsd=[…] (9) Equation 7 yields the well-known first-order exponential desorption formula: R(t)=Rmaxe^−k^off^t (10)
as §1, §2
(§3) The flow injection analysis (FIA) recordings were performed using an LC-10ADvp pump (Shimadzu Liquid Chromatography) and a Rheodyne 7125 six-port external sample injector (VICI, Houston, Tex.). A 1.00 mL sample loop was used to generate square concentration pulses for sensorgram recording in FIA conditions. […] The flow rate was 1.00 mL min^−1. Poiseuille peak broadening effects were kept to a minimum using short injector-detector connections (150 mm). To avoid such effects at the end of the square concentration pulse, the injector was switched from inject to load after 40 s (well before the sample loop volume was totally emptied).
The eluent was 5.0 mM H3PO4 (pH 2.4) for the poly(vinyl chloride) (PVC)-based electrodes and 0.5 mM 4-(2-hydroxyethyl)-1-piperazine-ethanesulfonic acid (HEPES; pH 6.0) for the hydrogel electrodes (see the section “Potentiometric Electrode”). The column outlet was directed perpendicularly toward the sensitive membrane of the coated wire electrode in a “wall-jet” flow cell [see FIG. 1 and Bazylak, G.; Nagels, L. J. J. Pharm. Biomed. Anal. 32 (2003) 887-903]. The distance from the LC tubing outlet to the electrode was 0.100 mm unless otherwise stated.
The membrane potential was measured against an Orion 800500 Ross reference electrode (Ag/AgCl) using a high impedance (10^13Ω) home-made amplifier. The detection signals were recorded on a data station composed of a PC equipped with a 6013 NI DA converter and LabVIEW 7 (National Instruments, Austin, Tex.) based software. The overall RC time constant of the high-impedance amplifier plus data station was set to 0.200 s.
Electrodes with a composite substrate have the important property that the membrane coating and the composite are tightly mixed at the interface, and sensors constructed in this way show very good impedance characteristics (see Nagels, L; Bohets, H.; Jimidar, M. U.S. Pat. No. 7,857,962 B2). These characteristics were verified using impedance spectroscopy. The measurements were performed with an Autolab Metrohm PGSTAT 128N FRA instrument (frequency 1-100 kHz, amplitude 10 mV). A semicircle in the Nyquist plot was obtained if the electrode had good impedance characteristics. Discussions on such characteristics of potentiometric sensors are well described in Mattinen, U.; Rabiej, S.; Lewenstam, A.; Bobacka, J. Electrochim. Acta 56 (2011) 10683-10687; and Bobacka, J.; Ivaska, A.; Lewenstam, A. Chem. Rev. 108 (2008) 329-351. […]

[4] = test system: DA-specific aptamer (58 mer); test: Potentiometric FIA sensorgram, gelatin B sensor with covalently linked DA-specific aptamer; assay type: binding; conditions: for Rmax response in mV: 10^−5M injection, coating Gelatin B + DA-specific aptamer; for change in sensitivity (Rmax) when aptamer is coupled to gelatin B: with versus without aptamer
Excerpt: as §1, §2, §3
The well-known ethyl-dimethyl-aminopropylcarbodiimide and n-hydroxy-succinimide (EDC-NHS) coupling procedure was used (with minor modifications) to bind the aminated aptamer covalently to the hydrogel, which contains carboxyl groups. After adding 20 μL of the coupling agents (15.32 mg of EDC and 2.32 mg of NHS dissolved in 100 μl of 10.0 mM MES buffer at pH 7.0) to the coated hydrogel for 2 h, 2×4 μL of the aptamer (10^−4M) was applied for 1 h. After evaporation for 2 h, at 4° C. the electrodes were kept in 10.0 mM MES running buffer, pH 7.0.
All chemicals were of analytical reagent grade. The FIA eluents were prepared daily by the dilution of a concentrated phosphoric acid solution or by dissolving HEPES, both obtained from Acros Organics (Filter Service NV, Eupen, Belgium). High-molecular-mass PVC was obtained from Janssen Chimica (Beerse, Belgium). The other membrane components were of the highest quality grade available from Fluka (Sigma-Aldrich, Bornem, Belgium). These include plasticizer TCPB, DOS, and the solvent tetrahydrofuran (THF). Type gelatin A (IEP (isoelectric point)=8.8, bloom strength 202), isolated from porcine skin by acid treatment, was obtained from Tessenderlo Chemie (Belgium). Promazine, lidocaine and tartaric acid were obtained from Sigma-Aldrich.
After checking the coupling of the aptamer to the biopolymer as described above, the electrodes were placed in a FIA potentiometric setup.
(§4) A R=10^mV/S−1 conversion was then plotted (see equation 4). […] Four electrodes were tested, each 3 injections.

[5] = test system: Gelatin B; test: Potentiometric FIA response on gelatin B-coated electrode without aptamer (negative control sensor); assay type: binding; conditions: for Rmax response in mV: 10^−5M injection, coating Gelatin B
Procedure: as §4

[6] = cited from earlier work
[7] = biological target: DA-specific aptamer; conditions: read-out: Kdiss determined colorimetrically; Zheng (2011); cited from earlier work

Compound | Kassoc=kon/koff [3] [M⁻¹] | koff [3] [min⁻¹] | kon [3] [min⁻¹ M⁻¹] | Rmax response in mV [4] [mV] | change in sensitivity (Rmax) when aptamer is coupled to gelatin B [4] | sensitivity of gelatin B based sensors [5] | Rmax response in mV [5] [mV] | other results
5′-AAAATATCATCTTTGGTGTTTC-3′ (chemistry not given here) [22-mer oligonucleotide used as analyte] | – | – | – | – | – | – | – | koff ([1]; off phase): 0.032 s⁻¹; kobsd ([1]; on phase): 0.055 s⁻¹
O=C(O)C(O)C(O)C(=O)O (stereo not drawn) [tartaric acid] | – | – | – | – | – | – | – | koff [2]: 2.83 min⁻¹; kon ([2]; from plot of slope versus canalyte, 0.5 mM HEPES pH 6.0): 4e+06 M⁻¹ min⁻¹
CN(C)CCCN1c2ccccc2Sc2ccccc21 [Promazine] | 2.74e+06 | 2.19 | 6e+06 | 2.44 | no improvement in sensitivity | quite insensitive | 3.66 | log P [6]: 4.36
CC(NCCc1ccc(O)cc1)C(O)c1ccc(O)cc1 (stereo not drawn) [Ritodrine, ritodrine] | – | – | – | 1.57 | no improvement in sensitivity | quite insensitive | 1.83 | –
CCN(CC)CC(=O)Nc1c(C)cccc1C [Lidocaine, lidocaine] | 275000 | 4.30 | 1.18e+06 | 1.57 | no improvement in sensitivity | quite insensitive | 2.88 | average value of koff ([3]; off phase, all curves at different concentrations): 4.49 min⁻¹
NCCc1ccc(O)c(O)c1 [Dopamine, dopamine] | – | – | – | 92.86 | very clear increase in Rmax | – | 9.46 | Kass [4]: 3.04e+07 M⁻¹; koff [4]: 0.042 min⁻¹; kon [4]: 1.27e+06 L/mol/min; signal (Rmax) with aptamer-containing electrodes versus electrodes without aptamer ([4]; four electrodes, each 3 injections): From five to ten times higher signals; Kd ([4]; mean of four electrodes, read-out: mean value of Kdiss): 1310 nM; Kd [7]: 700 nM
